Here are results for 8 compounds from the NIST ThermoML archive (doi:10.1016/j.jct.2013.12.029).

SMILES strings stand for the structures. ± gives the expanded uncertainty stated by the source.

The conditions of the data set: 101.33 kPa, Liquid, Vibrating tube method.

Broadly, the mass density is mass per unit of volume. With `CCCC[N+]1(C)CCCCC1.O=S(=O)([N-]S(=O)(=O)C(F)(F)F)C(F)(F)F`, for the setting “298.15 K”, the mass density turned out to be 1379.2 ± 1.1 kg/m3.
In the case of `CCCCCC[N+]1(C)CCCCC1.O=S(=O)([N-]S(=O)(=O)C(F)(F)F)C(F)(F)F`, the mass density by setting is: (293 K) 1329.5 ± 1.1 kg/m3; (298.15 K) 1325.4 ± 1.1 kg/m3.
On to `CCCO` [propan-1-ol], for which, for the setting “298.15 K”, the mass density was determined as 799.52 ± 1 kg/m3.
On the same count and under the same terms, the figure for `CC(C)=O` [acetone] is 785.32 ± 1 kg/m3; for `CCCCCCC` [heptane] it is 679.54 ± 1 kg/m3.
As to `CCC[N+]1(C)CCCCC1.O=S(=O)([N-]S(=O)(=O)C(F)(F)F)C(F)(F)F`, the mass density (298.15 K) is recorded as 1409.8 ± 1.1 kg/m3.
In the case of `c1ccsc1` [thiophene], the mass density (298.15 K) is given as 1058.92 ± 1 kg/m3.
The same measure, in the same setting: the figure for `c1ccc2sccc2c1` [benzo[b]thiophene] is 1427 ± 1 kg/m3.
